pEC50: −log10 of the molar value.

For this assay, the system named is HT-29 cells. The assay is described as follows: HT29 Cells 0FBS Assay In Vitro (TNF-α/SMAC mimetic/zVAD-FMK induced necroptosis, CellTiter-Glo cell viability). It counts as cell-based. Particulars: Homo sapiens; HT-29 cells, FBS free medium, TNF-α (10 ng/ml), SMAC mimetic (6 uM), zVAD-FMK (10 μM), 20 hours; geometric mean EC50; read-out: Cell activity (EC50) of Compounds 117-281. The procedure, abridged:
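Viability was measured by ATP luminescence (CellTiter-Glo) after 20 h at 37° C of compound exposure in 10-point, 1:3 dilutions. Necroptosis in FBS-free HT-29 cultures was driven by a TNF-α (10 ng/ml), SMAC mimetic (6 μM) and zVAD-FMK (10 μM) cocktail. EC50 values are geometric means from duplicate curves.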
For orientation: pEC50 means the negative decadic logarithm of the EC50, by convention in mol/L. Take `Cn1ncc(C(N)=O)c1-c1ccc(F)c(OC2CN(C(=O)N3N=CC[C@H]3c3cc(F)cc(F)c3)C2)n1` [compound 149, (S)-5-(6-((1-(5-(3,5-difluorophenyl)-4,5-dihydro-1H-pyrazole-1-carbonyl)azetidin-3-yl)oxy)-5-fluoropyridin-2-yl)-1-methyl-1H-pyrazole-4-carboxamide]: the pEC50 was 7.00 to 10.00.

As for `Cc1c(C#N)nn(C)c1-c1cc(OC2CN(C(=O)N3N=CC[C@H]3c3cc(F)cc(F)c3)C2)c(F)cn1` [compound 150, (S)-5-(4-((1-(5-(3,5-difluorophenyl)-4,5-dihydro-1H-pyrazole-1-carbonyl)azetidin-3-yl)oxy)-5-fluoropyridin-2-yl)-1,4-dimethyl-1H-pyrazole-3-carbonitrile], the pEC50 was 7.00 to 10.00.

For `Cc1nn(-c2cc(OC3CN(C(=O)N4N=CC[C@H]4c4cc(F)cc(F)c4)C3)c(F)cn2)c(C)c1C#N` [compound 151, (S)-1-(4-((1-(5-(3,5-difluorophenyl)-4,5-dihydro-1H-pyrazole-1-carbonyl)azetidin-3-yl)oxy)-5-fluoropyridin-2-yl)-3,5-dimethyl-1H-pyrazole-4-carbonitrile], the pEC50 is 7.00 to 10.00.

`Cc1nc(C)n(-c2cc(OC3CN(C(=O)N4N=CC[C@H]4c4cc(F)cc(F)c4)C3)c(F)cn2)c1C` [compound 152, (S)-(5-(3,5-difluorophenyl)-4,5-dihydro-1H-pyrazol-1-yl)(3-((5-fluoro-2-(2,4,5-trimethyl-11H-imidazol-1-yl)pyridin-4-yl)oxy)azetidin-1-yl)methanone]: the pEC50 is 7.00 to 10.00.

As to `CCOC(=O)c1[nH]c(C)c(-c2cc(OC3CN(C(=O)N4N=CC[C@H]4c4cc(F)cc(F)c4)C3)c(F)cn2)c1C` [compound 153, Ethyl (S)-4-(4-((1-(5-(3,5-difluorophenyl)-4,5-dihydro-1H-pyrazole-1-carbonyl)azetidin-3-yl)oxy)-5-fluoropyridin-2-yl)-3,5-dimethyl-1H-pyrrole-2-carboxylate], the pEC50 was 7.00 to 10.00.

Turning to `CNc1cc(-c2cc(OC3CN(C(=O)N4N=CC[C@H]4c4cc(F)cc(F)c4)C3)c(F)cn2)n(C)n1` [compound 154], the pEC50 is 7.00 to 10.00.

As for `COCc1c(C)nn(-c2cc(OC3CN(C(=O)N4N=CC[C@H]4c4cc(F)cc(F)c4)C3)c(F)cn2)c1C` [compound 155, (S)-(5-(3,5-difluorophenyl)-4,5-dihydro-1H-pyrazol-1-yl)(3-((5-fluoro-2-(4-(methoxymethyl)-3,5-dimethyl-1H-pyrazol-1-yl)pyridin-4-yl)oxy)azetidin-1-yl)methanone], the pEC50 was 7.00 to 10.00.

As for `Cc1nn(CCO)c(C)c1-c1ncc(F)c(OC2CN(C(=O)N3N=CC[C@H]3c3cc(F)cc(F)c3)C2)n1` [compound 156, (S)-(5-(3,5-difluorophenyl)-4,5-dihydro-1H-pyrazol-1-yl)(3-((5-fluoro-2-(1-(2-hydroxyethyl)-3,5-dimethyl-1H-pyrazol-4-yl)pyrimidin-4-yl)oxy)azetidin-1-yl)methanone], the pEC50 was 7.00 to 10.00.

As to `Cc1nn(C2CCOCC2)c(C)c1-c1cc(OC2CN(C(=O)N3N=CC[C@H]3c3cc(F)cc(F)c3)C2)c(F)cn1` [compound 157, (S)-(5-(3,5-difluorophenyl)-4,5-dihydro-1H-pyrazol-1-yl)(3-((2-(3,5-dimethyl-1-(tetrahydro-2H-pyran-4-yl)-1H-pyrazol-4-yl)-5-fluoropyridin-4-yl)oxy)azetidin-1-yl)methanone], the pEC50 is 7.00 to 10.00.

With `Cc1nn(CC2CC2)c(C)c1-c1ncc(F)c(OC2CN(C(=O)N3N=CC[C@H]3c3cc(F)cc(F)c3)C2)n1` [compound 158, (S)-(3-((2-(1-(cyclopropylmethyl)-3,5-dimethyl-1H-pyrazol-4-yl)-5-fluoropyrimidin-4-yl)oxy)azetidin-1-yl)(5-(3,5-difluorophenyl)-4,5-dihydro-1H-pyrazol-1-yl)methanone], the pEC50 was 7.00 to 10.00.

As for `Cc1nn(C)c(C)c1-c1cc(OC2CN(C(=O)N3N=CC[C@H]3c3cc(F)cc(F)c3)C2)c(F)cn1` [compound 159, (S)-(5-(3,5-difluorophenyl)-4,5-dihydro-1H-pyrazol-1-yl)(3-((5-fluoro-2-(1,3,5-trimethyl-1H-pyrazol-4-yl)pyridin-4-yl)oxy)azetidin-1-yl)methanone], the pEC50 is 7.00 to 10.00.

`COCCNc1nn(C)c(-c2cc(OC3CN(C(=O)N4N=CC[C@H]4c4cc(F)cc(F)c4)C3)c(F)cn2)c1C` [compound 160, (S)-(5-(3,5-difluorophenyl)-4,5-dihydro-1H-pyrazol-1-yl)(3-((5-fluoro-2-(3-((2-methoxyethyl)amino)-1,4-dimethyl-1H-pyrazol-5-yl)pyridin-4-yl)oxy)azetidin-1-yl)methanone]: the pEC50 is 7.00 to 10.00.

Regarding `Cc1ccc(C(N)=O)n1-c1cc(OC2CN(C(=O)N3N=CC[C@H]3c3cc(F)cc(F)c3)C2)c(F)cn1` [compound 161, (S)-1-(4-((1-(5-(3,5-difluorophenyl)-4,5-dihydro-1H-pyrazole-1-carbonyl)azetidin-3-yl)oxy)-5-fluoropyridin-2-yl)-5-methyl-1H-pyrrole-2-carboxamide], the pEC50 is 7.00 to 10.00.

As for `Cc1c(NC(C)C)nn(C)c1-c1cc(OC2CN(C(=O)N3N=CC[C@H]3c3cc(F)cc(F)c3)C2)c(F)cn1` [compound 162, (S)-(5-(3,5-difluorophenyl)-4,5-dihydro-1H-pyrazol-1-yl)(3-((5-fluoro-2-(3-(isopropylamino)-1,4-dimethyl-1H-pyrazol-5-yl)pyridin-4-yl)oxy)azetidin-1-yl)methanone], the pEC50 is 7.00 to 10.00.

In the case of `Cc1c(NCC2CC2)nn(C)c1-c1cc(OC2CN(C(=O)N3N=CC[C@H]3c3cc(F)cc(F)c3)C2)c(F)cn1` [compound 163, (S)-(3-((2-(3-((cyclopropylmethyl)amino)-1,4-dimethyl-1H-pyrazol-5-yl)-5-fluoropyridin-4-yl)oxy)azetidin-1-yl)(5-(3,5-difluorophenyl)-4,5-dihydro-1H-pyrazol-1-yl)methanone], the pEC50 is 7.00 to 10.00.

On to `Cc1c(N(C)CC2CC2)nn(C)c1-c1cc(OC2CN(C(=O)N3N=CC[C@H]3c3cc(F)cc(F)c3)C2)c(F)cn1` [compound 164, (S)-(3-((2-(3-((cyclopropylmethyl)(methyl)amino)-1,4-dimethyl-1H-pyrazol-5-yl)-5-fluoropyridin-4-yl)oxy)azetidin-1-yl)(5-(3,5-difluorophenyl)-4,5-dihydro-1H-pyrazol-1-yl)methanone], for which the pEC50 is 7.00 to 10.00.

On to `Cc1c(C(N)=O)nn(C)c1-c1cc(OC2CN(C(=O)N3N=CC[C@H]3c3cc(F)cc(F)c3)C2)c(F)cn1` [compound 165, (S)-5-(4-((1-(5-(3,5-difluorophenyl)-4,5-dihydro-1H-pyrazole-1-carbonyl)azetidin-3-yl)oxy)-5-fluoropyridin-2-yl)-1,4-dimethyl-1H-pyrazole-3-carboxamide], for which the pEC50 was 7.00 to 10.00.

`CN(C)c1cc(-c2cc(OC3CN(C(=O)N4N=CC[C@H]4c4cc(F)cc(F)c4)C3)c(F)cn2)n(C)n1` [compound 166, (S)-(5-(3,5-difluorophenyl)-4,5-dihydro-1H-pyrazol-1-yl)(3-((2-(3-(dimethylamino)-1-methyl-1H-pyrazol-5-yl)-5-fluoropyridin-4-yl)oxy)azetidin-1-yl)methanone]: the pEC50 was 7.00 to 10.00.

In the case of `CCS(=O)(=O)c1c(C)nn(-c2cc(OC3CN(C(=O)N4N=CC[C@H]4c4cc(F)cc(F)c4)C3)c(F)cn2)c1C` [compound 167, (S)-(5-(3,5-difluorophenyl)-4,5-dihydro-1H-pyrazol-1-yl)(3-((2-(4-(ethylsulfonyl)-3,5-dimethyl-1H-pyrazol-1-yl)-5-fluoropyridin-4-yl)oxy)azetidin-1-yl)methanone], the pEC50 is 7.00 to 10.00.

For `Cc1c(-c2cc(OC3CN(C(=O)N4N=CC[C@H]4c4cc(F)cc(F)c4)C3)c(F)cn2)c(CO)nn1CC1CC1` [compound 168, (S)-(3-((2-(1-(cyclopropylmethyl)-3-(hydroxymethyl)-5-methyl-1H-pyrazol-4-yl)-5-fluoropyridin-4-yl)oxy)azetidin-1-yl)(5-(3,5-difluorophenyl)-4,5-dihydro-1H-pyrazol-1-yl)methanone], the pEC50 was 7.00 to 10.00.

With `Cc1c(-c2cc(OC3CN(C(=O)N4N=CC[C@H]4c4cc(F)cc(F)c4)C3)c(F)cn2)c(CO)nn1CC1COC1` [compound 169, (S)-(5-(3,5-difluorophenyl)-4,5-dihydro-1H-pyrazol-1-yl)(3-((5-fluoro-2-(3-(hydroxymethyl)-5-methyl-1-(oxetan-3-ylmethyl)-1H-pyrazol-4-yl)pyridin-4-yl)oxy)azetidin-1-yl)methanone], the pEC50 was 5.00 to 6.00.

Turning to `Cc1cc(C(F)(F)F)nn1-c1cc(OC2CN(C(=O)N3N=CC[C@H]3c3cc(F)cc(F)c3)C2)c(F)cn1` [compound 170, (S)-(5-(3,5-difluorophenyl)-4,5-dihydro-1H-pyrazol-1-yl)(3-((5-fluoro-2-(5-methyl-3-(trifluoromethyl)-1H-pyrazol-1-yl)pyridin-4-yl)oxy)azetidin-1-yl)methanone], the pEC50 is 7.00 to 10.00.

On to `CN(C)C(=O)c1cc(-c2cc(OC3CN(C(=O)N4N=CC[C@H]4c4cc(F)cc(F)c4)C3)c(F)cn2)n(C)n1` [compound 171, (S)-5-(4-((1-(5-(3,5-difluorophenyl)-4,5-dihydro-1H-pyrazole-1-carbonyl)azetidin-3-yl)oxy)-5-fluoropyridin-2-yl)-N,N,1-trimethyl-11H-pyrazole-3-carboxamide], for which the pEC50 is 7.00 to 10.00.

Turning to `Cn1nc(C(N)=O)cc1-c1cc(OC2CN(C(=O)N3N=CC[C@H]3c3cc(F)cc(F)c3)C2)c(F)cn1` [compound 172, (S)-5-(4-((1-(5-(3,5-difluorophenyl)-4,5-dihydro-1H-pyrazole-1-carbonyl)azetidin-3-yl)oxy)-5-fluoropyridin-2-yl)-1-methyl-1H-pyrazole-3-carboxamide], the negative-log EC50 (pEC50) is 7.00 to 10.00.

For the origin of these results see US12655125B2 (SIRONAX LTD., priority 2020, dated 2026).
